Measured values reported in US6716826B2, “Compounds and their uses” (Rodaris Pharmaceuticals Limited, priority 2000, dated 2004).

Assays:
PKA = PKA inhibition assay; assay type: biochemical
From the text: (§1) Methods for obtaining A-type and P-type mediators are set out in Caro et al, 1997, and in WO98/11116 and WO98/11117. Protocols for determining characteristic IPG biological activities such as PDH activation, PKA inhibition, acetylCoA activation, fructose-1,6-bis-phosphatase activity and lipogenesis are well known in the art, e.g. as described in Caro et al ^[14].
(§2) The compounds of the invention can be tested for one or more the characteristic IPGP and/or IPG-A activities mentioned above to determine whether they will be suitable for use a IPG mimetics or antagonists. Preferred assays measure the effect of the compounds on PDH phosphatasc, PKA or lipogenesis. Protocols for these assays are provided in Caro et al ^[14].

PDH phosphatase = assay: PDH activation assay; assay type: biochemical
From the text: as §1, §2

PDH activation at 100 μM (PDH phosphatase) [%] | SMILES | PKA inhibition at 0.1 μM (PKA) [%]
– | NC1C(OC2C(O)C(O)C(O)C(O)C2O)OC(CO)C(OC2OC(CO)C(O)C(O)C2O)C1O [RGL1014, O-α-D-Galactopyranosyl-(1-4)-(2-amino-2-deoxy-α-D-glucopyranosyl)-(1-6)-D-myo-inositol] | 2
14 | NC1C(OC2C(O)C(O)C(O)C(O)C2O)OC(CO)C(OC2OC(CO)C(O)C(O)C2O)C1O [RGL1021, O-(α-D-galactopyranosyl)-(1-4)-(2-amino-2-deoxy-α-D-glucopyranosyl)-(1-6)-D-chiro-inositol] | –
– | NC1C(OC2C(O)C(O)C(O)C(O)C2OP(=O)(O)O)OC(CO)C(OC2OC(CO)C(O)C(O)C2O)C1O [RGL1022, O-α-D-galactopyranosyl-(1-4)-2-ammonio-2-deoxy-α-D-glucopyranosyl-(1-6)-D-chiro-inositol-1-phosphate] | 47
